The structures appear in SMILES notation. Square brackets hold non-standard residues; d marks the D form. Peptide text beside a SMILES is read from it. * marks the point of attachment. Sta = CC(C)C[C@H](N)[C@@H](O)CC(=O)O; Isovaleryl = CC(C)CC(=O)*

Assay type in all cases: biochemical
Assay [1] deals with exopeptidase (metalloproteinase activity) of Lucilia sericata ES. Put plainly: Leucine aminopeptide hydrolysis by Lucilia sericata ES. The source says:
(§1) In addition to the predominant serine proteinase activity detected in the ES secretions of Lucilia sericata other less predominant activity is present. The presence of an aspartyl and metalloproteinase activity has been detected though no cysteinyl activity is shown. […] This inhibition reflects the presence of an exopeptidase with a metalloproteinase enzymic nature.

Assay [2] concerns fibronectin, laminin and collagens I, III, IV and V. Put plainly: Degradation of ECM/wound components by larval ES secretions.
In assay [3] the test system is Lucilia sericata ES serine proteinase activity. Put plainly: FITC-casein hydrolysis by Lucilia sericata ES at pH8 in the presence of PMSF/APMSF. The procedure: The activity of Lucilia sericata ES in FITC-casein hydrolysis at pH8 was investigated using different presentations of ES (0.25 μg) as follows:
The proteolytic activity of Lucilia sericata ES was inhibited following pre-incubation with the irreversible serine proteinase inhibitor PMSF. […] PMSF is dissolved in ethanol and the effect of the solvent on the activity of the ES was negligible. In contrast, approximately 50% of residual serine proteinase activity from ES was detected in the cases where the ES had been pre-incubated with the irreversible “trysin-like” specific inhibitor APMSF. Residual activity in the presence of APMSF indicates the presence of a chymotrypsin-like enzyme.

In assay [4] the test system is trypsin-like serine proteinase activity in Lucilia sericata ES. Put plainly: Tosyl-Gly-Pro-Arg-AMC hydrolysis by Lucilia sericata ES in the presence of APMSF and PMSF. The procedure: (§2) The activity of Lucilia sericata ES (0.25 μg) against Tosyl-Gly-Pro-Arg-AMC (a) and against Suc-Ala-Ala-Phe-AMC (b) in the presence of APMSF and PMSF was investigated using different presentations of ES as follows:
(a) • A. ES • B. ES pre-incubated with 0.025 mM APMSF • C. ES pre-incubated with 0.05 mM APMSF • D. ES pre-incubated with 1 mM PMSF
(§3) The results for (a) reveal the “trypsin-like” serine proteinase activity present in Lucilia sericata ES. The hydrolysis of Tosyl-Glyc-Pro-Arg-AMC (selective for the serine proteinases thrombin and plasmin) was inhibited by 1 mM PMSF and 0.05 mM APMSF. […] The results provide further evidence of the presence in ES of two different sub-classes of serine proteinase.

For assay [5], the system named is chymotrypsin-like serine proteinase activity in Lucilia sericata ES. Put plainly: Suc-Ala-Ala-Phe-AMC hydrolysis by Lucilia sericata ES in the presence of APMSF and PMSF. The procedure: as §2
(b) • E. ES • F. ES pre-incubated with 0.2 mM APMSF • G. ES pre-incubated with 1 mM PMSF
as §3

Assay [6] relates to trypsin-like serine proteinase (aminobenzamidine elution peak) and flow-through proteinases of Lucilia sericata ES. Put plainly: Residual proteinase activity of aminobenzamidine agarose column fractions with APMSF. The protocol: The trypsin-like serine proteinase was purified by affinity chromatography of Lucilia sericata ES on aminobenzamidine agarose. The column matrix (1 ml) was equilibrated with 20 ml of 0.025M Tris-HCl buffer pH 8.0 containing 0.5M NaCl. The crude ES (0.5 ml, 70 μg/ml protein) was diluted with an equal volume of buffer before application to the column. Fractions (0.5 ml) were collected throughout the chromatography. After washing with 6.5 times column volume of buffer to remove unbound protein, the free aminobenzamidine ligand (2 ml 400 μM) was used to elicit the elution of bound material. Absorbance readings of the fractions at 280 nm was used to establish the positions of the unbound (flow-through) and bound peaks which were then collected for assay.
Aminobenzamidine agarose binds trypsin-like serine proteinases. Following application of larval enzyme secretions to the column, unbound material passed directly through and was collected as “flow-through” (peak I). The addition of free aminobenzamidine to the column buffer elicited elution of the bound proteinase (peak II). The unbound (flow-through) material contained proteinase activity unaffacted by APMSF (possibly including a a chrymotrypsin-like enzyme), whereas the activity in the aminobenzamidine elution peak was substantially abolished (80%) by APMSF, indicating purification of a trypsin-like serine proteinase activity.

A short description of assay [7]: Lipase activity of ES secretions. The settings on record: pre-incubated with the inhibitor.
For assay [8], the system named is aspartyl activity of Lucilia sericata ES. Put plainly: Aspartyl proteinase activity of ES by FITC-casein hydrolysis at pH 5.0.
Excerpt: as §1

The mark [9] stands for this setting: ES (0.25 μg) pre-incubated with 0.2 mM inhibitor.
Where [10] appears, read: ES (0.25 μg) pre-incubated with 1 mM inhibitor.

Take `c1cnc2c(c1)ccc1cccnc12` [1,10-phenanthroline]: the “inhibition of leucine aminopeptide hydrolysis” value in assay [1] is “inhibited”. Besides, the “inhibition of the degradation of laminin and fibronectin by larval secretions” value (“inhibition … by larval secretions” for short) in assay [2] is “not significantly”.
As to `N=C(N)c1ccc(CS(=O)(=O)F)cc1` [APMSF, 4-(amidinophenyl) methane sulphonyl fluoride], the “activity (%) of ES in FITC-casein hydrolysis” value is reported as 43.5% in assay [3] (ES (0.25 μg) pre-incubated with 0.04 mM inhibitor), 47% in assay [3] (ES (0.25 μg) pre-incubated with 0.12 mM inhibitor) and 54% in assay [3] (setting [9]). Moreover, the “residual serine proteinase activity from ES” value in assay [3] (ES pre-incubated with APMSF, summary over the concentrations) was “approximately 50%”. For the same compound, the “residual activity (%) against Tosyl-Gly-Pro-Arg-AMC” value in assay [4] (ES (0.25 μg) pre-incubated with 0.025 mM inhibitor) was found to be 14.3%; in assay [4] (ES (0.25 μg) pre-incubated with 0.05 mM inhibitor), 3.6%. The “residual activity (%) against Suc-Ala-Ala-Phe-AMC” value in assay [5] (setting [9]) worked out at 86.8%. Also, the “activity abolished by inhibitor” value in assay [6] (aminobenzamidine elution peak (peak II)) is 80%. Moreover, the “effect of inhibitor on proteinase activity” value in assay [6] (unbound (flow-through) material (peak I)) is given as “unaffacted”. Besides, the “inhibition … by larval secretions” value in assay [2] is “not significantly”.
In the case of `O=S(=O)(F)Cc1ccccc1` [PMSF, phenyl methanesulphonyl fluoride], the “activity (%) of ES in FITC-casein hydrolysis” value in assay [3] (setting [9]) is reported as 13.8%; in assay [3] (ES (0.25 μg) pre-incubated with 0.6 mM inhibitor), 18%. Further, in assay [4] (setting [10]), the “residual activity (%) against Tosyl-Gly-Pro-Arg-AMC” value was 0%. The “residual activity (%) against Suc-Ala-Ala-Phe-AMC” value in assay [5] (setting [10]) came out at 1.3%. For the same compound, the “lipase activity of ES secretions pre-incubated with inhibitor” value in assay [7] is reported as “not detected”. Moreover, the “inhibition … by larval secretions” value in assay [2] is “inhibited”.
`CC(C)CC(=O)N[C@H](C(=O)N[C@H](C(=O)N[C@@H](CC(C)C)[C@@H](O)CC(=O)N[C@@H](C)C(=O)N[C@@H](CC(C)C)[C@@H](O)CC(=O)O)C(C)C)C(C)C` [pepstatin A] (Isovaleryl-VV[Sta]A[Sta]-OH): the “inhibition of aspartyl activity” value in assay [8] is “successfully inhibited”.

(Values after patent US7144721B1, “Treatment of wounds” (The Secretary of the State of Defense, Defence Science and …, priority 1999, dated 2006).)
